Laboratory results reported in ChEMBL document CHEMBL6120991, “Chromones Featuring a [6,6]-Spiroketal Moiety Produced by Coculture of the Endophytic Fungi Chaetomium virescens and Xylaria Grammica” (J Nat Prod, 2025).
Activity calls are given as the source filed them. The calls are words filed in the database; no cut-off is given here.

Key:
SW620/AD300 [1] = test: Cytotoxicity against multidrug resistant human SW620/AD300 cells assessed as inhibition of cell viability at 20 uM measured after 72 hrs in presence of paclitaxel by CCK-8 method relative to control; assay type: functional
SW620/AD300 [2] = test: Cytotoxicity against multidrug resistant human SW620/AD300 cells assessed as inhibition of cell viability at 1 uM measured after 72 hrs by CCK-8 method relative to control; assay type: functional
SW620/AD300 [3] = test: Inhibition of colony formation in human SW620/AD300 cells assessed as decrease in colony number at 1 uM incubated for 7 days by crystal violet staining based analysis; assay type: functional, cell-based; conditions: time 7.0 day
SW620/AD300 [4] = test: Reversal of multi-drug resistance in human SW620/AD300 cells assessed as increase in frequency of cells in G2/M phase at 20 uM presence of 1 uM of paclitaxel incubated for 24 hrs by PI staining based flow cytometry analysis; assay type: functional, cell-based
SW620/AD300 [5] = test: Reversal of multi-drug resistance in human SW620/AD300 cells assessed as decrease in colony number at 20 uM presence of 0.25 uM of paclitaxel incubated for 7 days by crystal violet staining based analysis; assay type: functional, cell-based; conditions: time 7.0 day
SW620/AD300 [6] = test: Inhibition of colony formation in human SW620/AD300 cells assessed as decrease in colony number at 20 uM incubated for 7 days by crystal violet staining based analysis; assay type: functional, cell-based; conditions: time 7.0 day
SW620/AD300 [7] = test: Reversal of multi-drug resistance in human SW620/AD300 cells assessed as decrease in frequency of cells in G0/G1 phase at 20 uM presence of 1 uM of paclitaxel incubated for 24 hrs by PI staining based flow cytometry analysis; assay type: functional, cell-based
SW620/AD300 [8] = test: Reversal of multi-drug resistance in human SW620/AD300 cells assessed as decrease in colony number at 20 uM presence of 1 uM of paclitaxel incubated for 7 days by crystal violet staining based analysis; assay type: functional, cell-based; conditions: time 7.0 day
[9] = target: ATP-dependent translocase ABCB1 (Homo sapiens, UniProt P08183); test: Induction of thermal stabilization of P-gp in multidrug resistant human SW620/AD300 cells at 20 uM incubated for 30 mins by CESTA analysis; assay type: cell-based; conditions: sw620/ad300, 0.5 h
ATP-dependent translocase ABCB1, sequence (P08183 whole entry): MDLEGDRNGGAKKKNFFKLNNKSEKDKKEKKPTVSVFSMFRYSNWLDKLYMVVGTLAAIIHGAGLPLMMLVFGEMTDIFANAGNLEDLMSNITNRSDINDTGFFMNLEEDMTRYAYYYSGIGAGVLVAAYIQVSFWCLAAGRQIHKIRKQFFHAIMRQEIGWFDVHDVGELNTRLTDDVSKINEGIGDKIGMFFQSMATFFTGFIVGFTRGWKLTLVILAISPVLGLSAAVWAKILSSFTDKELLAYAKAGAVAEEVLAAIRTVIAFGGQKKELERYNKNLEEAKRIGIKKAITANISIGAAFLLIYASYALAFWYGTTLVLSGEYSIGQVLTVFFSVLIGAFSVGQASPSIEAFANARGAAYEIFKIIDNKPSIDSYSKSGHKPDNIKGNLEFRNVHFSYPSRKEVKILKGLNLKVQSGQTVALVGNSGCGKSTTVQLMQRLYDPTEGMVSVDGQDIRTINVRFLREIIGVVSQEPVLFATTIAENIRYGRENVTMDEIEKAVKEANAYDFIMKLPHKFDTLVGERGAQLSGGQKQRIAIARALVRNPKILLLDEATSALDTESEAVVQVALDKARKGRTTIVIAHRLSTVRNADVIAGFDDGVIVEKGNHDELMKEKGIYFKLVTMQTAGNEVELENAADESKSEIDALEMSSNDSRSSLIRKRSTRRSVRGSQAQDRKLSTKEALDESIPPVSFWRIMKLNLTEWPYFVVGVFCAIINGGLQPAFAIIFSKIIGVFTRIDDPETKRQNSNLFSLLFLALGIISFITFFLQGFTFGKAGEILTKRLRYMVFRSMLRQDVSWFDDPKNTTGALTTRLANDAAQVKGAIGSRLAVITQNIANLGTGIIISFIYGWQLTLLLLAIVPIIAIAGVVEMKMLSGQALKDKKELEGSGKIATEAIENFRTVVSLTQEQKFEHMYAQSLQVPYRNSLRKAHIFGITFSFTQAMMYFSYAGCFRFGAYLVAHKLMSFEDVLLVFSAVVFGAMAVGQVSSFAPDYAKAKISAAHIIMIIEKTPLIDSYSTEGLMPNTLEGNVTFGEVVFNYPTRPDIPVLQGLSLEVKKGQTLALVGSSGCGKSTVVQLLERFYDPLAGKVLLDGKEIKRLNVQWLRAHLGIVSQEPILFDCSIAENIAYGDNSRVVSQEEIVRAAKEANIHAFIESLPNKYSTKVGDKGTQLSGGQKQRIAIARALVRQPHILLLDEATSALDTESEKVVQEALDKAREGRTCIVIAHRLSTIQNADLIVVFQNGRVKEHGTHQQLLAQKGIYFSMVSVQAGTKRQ

Row | Compound | inhibition at 20 µM (SW620/AD300 [1]) | other results
1 | COc1cc2oc(CO)cc(=O)c2c2c1C[C@H](C)[C@@]1(O2)O[C@@H](C)C[C@H](O)[C@@H]1O | 15.3% | 
2 | COc1cc2oc(CO)cc(=O)c2c2c1C[C@@H](C)[C@@]1(C[C@@H](NCC/C(C)=C/C(=O)O)C[C@H](C)O1)O2 | 46.4% | 
3 | COc1cc2oc(C)cc(=O)c2c2c1C[C@@H](C)[C@@]1(C[C@@H](O)C[C@H](C)O1)O2 | 10% | 
4 | COc1cc2oc(C)cc(=O)c2c2c1C[C@H](C)[C@@]1(O2)O[C@@H](C)CCC1=O | 24.5% | 
5 | COc1cc2oc(C)cc(=O)c2c2c1C[C@H](C)[C@@]1(O2)O[C@@H](C)C[C@H](O)[C@@H]1O | 22% | 
6 | CC(=O)O[C@H]1C(=O)[C@@]2(C)[C@H]([C@H](OC(=O)c3ccccc3)[C@]3(O)C[C@H](OC(=O)[C@H](O)[C@@H](NC(=O)c4ccccc4)c4ccccc4)C(C)=C1C3(C)C)[C@]1(OC(C)=O)CO[C@@H]1C[C@@H]2O [PACLITAXEL] |  | inhibition at 1 µM (SW620/AD300 [2]): 1.1%; inhibition (SW620/AD300 [3]): inactive
7 | COc1cc2oc(C)cc(=O)c2c2c1CC(C)C1(O2)OC(C)CC(O)C1O (stereo not given) | 11.1% | 
8 | COc1cc2oc(C)cc(=O)c2c2c1C[C@@H](C)[C@@]1(O2)O[C@@H](C)C[C@H](O)[C@@H]1O | 19.6% | 
9 | COc1cc2oc(CO)cc(=O)c2c2c1C[C@@H](C)[C@@]1(O2)O[C@@H](C)C[C@H](O)[C@@H]1O | 11.2% | 
10 | COc1cc2oc(C)cc(=O)c2c2c1CC[C@@]1(O2)O[C@@H](C)C[C@H](O)[C@@H]1O | 3.1% | 
11 | COc1cc2oc(C)cc(=O)c2c2c1C[C@@H](C)[C@@]1(C[C@H](OC)C[C@H](C)O1)O2 | 77.8% | Activity (SW620/AD300 [4]): Active; Activity (SW620/AD300 [5]): Active; inhibition (SW620/AD300 [6]): inactive; Activity (SW620/AD300 [7]): Active; Activity (SW620/AD300 [8]): Active; Activity [9]: Active
12 | COc1cc2oc(C)cc(=O)c2c2c1C[C@@H](C)[C@@]1(C[C@H](O)C[C@H](C)O1)O2 | 0.2% | 
13 | COc1cc2oc(C)cc(=O)c2c2c1C[C@H](C)[C@@]1(C[C@H](OC)C[C@H](C)O1)O2 | 29.2% | 
